Reference: paper PMC11365428 (The Journal of Biological Chemistry, 2024)
Non-standard residues stand in square brackets, D forms with d. Residues, ends and D or L forms follow the SMILES beside them. pGlu = O=C1CC[C@@H](C(=O)O)N1

Legend:
Format in all cases: cell-based
[1] = biological target: T1, apTKRPR-A (Aplysia californica, UniProt A0AAU7SSZ1); test: Cell surface expression by ELISA after ligand exposure, FLAG-apTKRPR-A; settings: 10 µM, different durations, compared with 0 min, n = 4
T1 sequence (A0AAU7SSZ1 1-398): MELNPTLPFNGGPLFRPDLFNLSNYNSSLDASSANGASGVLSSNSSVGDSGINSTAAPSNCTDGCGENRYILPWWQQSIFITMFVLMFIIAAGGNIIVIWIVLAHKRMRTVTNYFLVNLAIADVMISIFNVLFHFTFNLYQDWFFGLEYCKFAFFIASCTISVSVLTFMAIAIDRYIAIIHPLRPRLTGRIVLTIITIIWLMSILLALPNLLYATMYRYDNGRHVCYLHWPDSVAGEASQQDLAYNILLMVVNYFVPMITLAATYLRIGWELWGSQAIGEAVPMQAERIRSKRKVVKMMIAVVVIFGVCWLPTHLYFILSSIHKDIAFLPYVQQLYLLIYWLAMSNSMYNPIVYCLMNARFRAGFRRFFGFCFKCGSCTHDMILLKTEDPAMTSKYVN
Protocol: Cell surface expression determination of apTKRPRs and mutant receptors, all with FLAG tags, was performed using a procedure modified from previous work ([64], [122], [123], [124]). Specifically, CHO-K1 cells were cultured in F-12K medium (Gibco, 21127-022) with 10% FBS (Genial, G11-70500) at 37 °C in a humidified incubator containing 5% CO2. When the cells were grown to 70 to 90% confluence, transfection experiments were performed (see “Cell culture and transfection” section). After 24 h, transfected cells were plated in 96-well white clear-bottom cell culture plates (Corning, 3610) at a density of 20,000 cells in 100 μl per well and incubated overnight. The following day, culture media was aspirated and cells were washed twice with 200 μl of 1× PBS (Procell, PB180327). Then, 100 μl of 1× PBS containing 5% (w/v) BSA was added to each well and incubated at room temperature. After 30 min, 100 μl of 1:10,000 anti-FLAG M2-horseradish peroxidase conjugate (Sigma-Aldrich, Cat A8592) was added to each well and incubated for 30 min at 37 °C. Cells were washed twice with 200 μl of 1× PBS and then incubated with 200 μl of TMB Chromogen Solution (Sangon Biotech, E661007) for 30 min at 37 °C in the dark. Finally, 50 μl of ELISA Stopping Solution (Sangon Biotech, E661006) was added to each well to stop the reaction. The absorbance at 450 nm was measured using a Tecan Spark microplate reader. […]

[2] = biological target: T2, apTKRPR-B (Aplysia californica, UniProt A0AAU7STS1); test: Receptor desensitization assay, protocol 1 (prolonged agonist exposure), apTKRPR-B; settings: 10 μM, 2, 5, 10, 15, 30 and 60 min at 37 °C; fold increase over basal; n = 3
T2 sequence (A0AAU7STS1 1-447): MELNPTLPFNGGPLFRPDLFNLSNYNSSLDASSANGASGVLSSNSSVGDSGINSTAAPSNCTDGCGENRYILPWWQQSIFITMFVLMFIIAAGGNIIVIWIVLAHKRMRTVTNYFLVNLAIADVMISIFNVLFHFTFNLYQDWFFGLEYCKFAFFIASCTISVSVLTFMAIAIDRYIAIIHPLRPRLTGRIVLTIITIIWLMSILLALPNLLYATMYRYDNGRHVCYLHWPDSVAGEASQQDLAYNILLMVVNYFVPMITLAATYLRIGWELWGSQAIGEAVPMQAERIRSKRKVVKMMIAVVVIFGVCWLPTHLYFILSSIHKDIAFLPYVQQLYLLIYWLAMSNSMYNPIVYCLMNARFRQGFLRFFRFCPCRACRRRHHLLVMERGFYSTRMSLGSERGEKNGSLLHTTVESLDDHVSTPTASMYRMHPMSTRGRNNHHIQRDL
Protocol: Therefore, we adopted two protocols to study the desensitization of apTKRPRs. The protocols were performed using a procedure modified from previous work ([87], [88], [89]).
Protocol 1 ([87], [88]): Under continuous (prolonged) stimulation with an agonist, we examined agonist-induced desensitization by quantifying the rate of IP1 accumulation. Specifically, CHO-K1 cells transiently expressing pcDNA3.1-apTKRPRs were incubated in the absence or presence of 10 μM (saturating concentration) apTKRP-2b for the different duration (2, 5, 10, 15, 30, and 60 min) at 37 °C, and intracellular concentrations of IP1 accumulation were measured. Data are presented as fold increase over basal IP1 concentration (Fig. S10).

[3] = biological target: T2, apTKRPR-B; test: IP1 accumulation assay, CHO-K1 cells transiently expressing apTKRPR-B
Protocol: To express putative Aplysia receptors transiently in CHO-K1 cells, the cDNAs were subcloned into the pcDNA3.1(+) or pcDNA3.1(+)-FLAG (for ELISA experiments only, see “Cell surface expression analysis by ELISA” section) expression vector. On the day before transfection, the CHO-K1 cells were passaged into 60 mm diameter tissue culture–treated dishes, and the transfection experiments were performed when the cells were grown to 70 to 90% confluence. CHO-K1 cells were transfected with the cDNA plasmid constructs using Turbofect Transfection reagent (Thermo Fisher Scientific, R0531), following the manufacturer’s instructions. […] The DNA/TurboFect mixture dropwise was then added to the dish, and the cells were incubated at 37 °C in a humidified incubator containing 5% CO2 overnight.
On the third day, the activation of the putative receptors was detected by monitoring intracellular IP1 concentration using an IP-One Gq kit (Cisbio, 62IPAPEB) in Tecan Spark. Except for using 0.5x reagent, all other procedures were performed following the manufacturer’s instructions. IP1 accumulation assay measures the accumulation of IP1, which is hydrolyzed from the second messenger, and inositol triphosphate. Inositol triphosphate is generated by the Gαq pathway when a GPCR is activated by an appropriate ligand.

## CC(C)C[C@H](NC(=O)[C@H](Cc1c[nH]cn1)NC(=O)[C@@H]1CCCN1C(=O)[C@@H]1CCC(=O)N1)C(=O)NCC(=O)N[C@@H](Cc1ccccc1)C(=O)N[C@@H](Cc1c[nH]cn1)C(=O)NCC(=O)N[C@@H](CO)C(=O)N[C@@H](CCCNC(=N)N)C(N)=O [apTKRP-2b] ([pGlu]PHLGFHGSR-NH2)
[1]
  cell surface receptor expression of apTKRPR-A after agonist exposure: significant loss of receptor expression
[2]
  time course of IP1 accumulation, apTKRPR-B (protocol 1): initially increased and then reached a plateau
[3]
  EC50: 5.37 nM
[3]; 10^-5 M compared with 10^-10 M (control), n = 3, no Gαq cotransfection
  IP1 response of apTKRPR-B in screening: responded
